Laboratory results published in patent US11524938B2, “Aromatic sulfonamide derivatives” (Bayer Pharma Aktiengesellschaft, priority 2016, dated 2022).
pIC50: −log10 of the molar value.

Target: T1, human P2X4 (Homo sapiens, UniProt Q99571)
T1 sequence (Q99571 1-388): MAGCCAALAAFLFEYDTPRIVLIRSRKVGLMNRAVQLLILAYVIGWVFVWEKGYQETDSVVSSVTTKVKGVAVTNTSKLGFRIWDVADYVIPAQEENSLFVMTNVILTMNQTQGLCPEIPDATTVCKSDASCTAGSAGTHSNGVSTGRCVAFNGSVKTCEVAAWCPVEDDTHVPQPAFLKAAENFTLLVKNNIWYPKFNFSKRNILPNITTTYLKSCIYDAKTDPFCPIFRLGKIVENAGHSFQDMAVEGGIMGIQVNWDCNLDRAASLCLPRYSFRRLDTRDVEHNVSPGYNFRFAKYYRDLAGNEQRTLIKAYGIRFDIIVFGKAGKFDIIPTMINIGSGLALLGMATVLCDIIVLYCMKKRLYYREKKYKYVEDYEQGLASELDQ
Assay: Human P2X4 HEK Cell FLIPR Assay
Type: cell-based
Details: agonist Bz-ATP at EC80; for Emax: HEK293, HEK293 cells, percentage of maximal inhibition, read-out: Human P2X4 HEK Cells (FLIPR Assay) avg Efficacy [%]; for pIC50: HEK293 cells, individual values listed where some fall outside detection range
Method in brief: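 Calcium flux read by FLIPR for 120 sec after Bz-ATP challenge at EC80 (established each assay day), following 30 min room-temperature compound preincubation in dye-loaded stable human P2X4 HEK293 cells. Peak RFU over basal normalized to agonist control; IC50, maximal inhibition and Hill coefficient from triplicate means.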

Row | Emax [%] | pIC50 | Compound
1 | 75 | 7.15 | NS(=O)(=O)c1cc(NC(=O)Cc2cc(F)ccc2Cl)ccc1-n1cc(F)cn1 [Example 168, 2-(2-Chloro-5-fluorophenyl)-N-[4-(4-fluoro-1H-pyrazol-1-yl)-3-sulfamoylphenyl]-acetamide]
2 | 86 | 7.07 | NS(=O)(=O)c1cc(NC(=O)Cc2c(Cl)cccc2C(F)(F)F)ccc1-n1cc(F)cn1 [Example 169, 2-[2-Chloro-6-(trifluoromethyl)phenyl]-N-[4-(4-fluoro-1H-pyrazol-1-yl)-3-sulfamoyl-phenyl]acetamide]
3 | 90 | 5.65 | CC(C(=O)Nc1ccc(-n2cc(F)cn2)c(S(N)(=O)=O)c1)c1c(F)cccc1F (stereo not drawn) [Example 171, 2-(2,6-Difluorophenyl)-N-[4-(4-fluoro-1H-pyrazol-1-yl)-3-sulfamoylphenyl]-propanamide]
4 | 58 | 7.32 | Cc1ccc(CC(=O)Nc2ccc(-n3cc(Cl)cn3)c(S(N)(=O)=O)c2)cc1 [Example 172, N-[4-(4-Chloro-1H-pyrazol-1-yl)-3-sulfamoylphenyl]-2-(4-methylphenyl)acetamide]
5 | 80 | 7.55 | Cc1ccccc1CC(=O)Nc1ccc(-n2cc(Cl)cn2)c(S(N)(=O)=O)c1 [Example 173, N-[4-(4-Chloro-1H-pyrazol-1-yl)-3-sulfamoylphenyl]-2-(2-methylphenyl)acetamide]
6 | 79 | 7.35 | Cc1cccc(CC(=O)Nc2ccc(-n3cc(Cl)cn3)c(S(N)(=O)=O)c2)c1 [Example 174, N-[4-(4-Chloro-1H-pyrazol-1-yl)-3-sulfamoylphenyl]-2-(3-methylphenyl)acetamide]
7 | 88 | 6.65 | CCOc1ccccc1CC(=O)Nc1ccc(-n2cc(Cl)cn2)c(S(N)(=O)=O)c1 [Example 175, N-[4-(4-Chloro-1H-pyrazol-1-yl)-3-sulfamoylphenyl]-2-(2-ethoxyphenyl)acetamide]
8 | 71 | 6.57 | CCOc1ccccc1CC(=O)Nc1ccc(-n2cc(C(F)(F)F)cn2)c(S(N)(=O)=O)c1 [Example 176, 2-(2-Ethoxyphenyl)-N-{3-sulfamoyl-4-[4-(trifluoromethyl)-1H-pyrazol-1-yl]phenyl}acetamide]
9 | 83 | 7.46 | NS(=O)(=O)c1cc(NC(=O)Cc2ccccc2Br)ccc1-n1cc(F)cn1 [Example 177, 2-(2-Bromophenyl)-N-[4-(4-fluoro-1H-pyrazol-1-yl)-3-sulfamoylphenyl]acetamide]
10 | 70 | 7.40 | NS(=O)(=O)c1cc(NC(=O)Cc2ccc(Cl)cc2Cl)ccc1-n1cc(F)cn1 [Example 178, 2-(2,4-Dichlorophenyl)-N-[4-(4-fluoro-1H-pyrazol-1-yl)-3-sulfamoylphenyl]acetamide]
11 | 89 | 7.46 | NS(=O)(=O)c1cc(NC(=O)Cc2c(Cl)cccc2Cl)ccc1-n1cc(F)cn1 [Example 179, 2-(2,6-Dichlorophenyl)-N-[4-(4-fluoro-1H-pyrazol-1-yl)-3-sulfamoylphenyl]acetamide]
12 | 77 | 6.50 | N#Cc1cnn(-c2ccc(NC(=O)Cc3ccccc3[N+](=O)[O-])cc2S(N)(=O)=O)c1 [Example 180, N-[4-(4-Cyano-1H-pyrazol-1-yl)-3-sulfamoylphenyl]-2-(2-nitrophenyl)acetamide]
13 | 59 | 6.75 | N#Cc1cnn(-c2ccc(NC(=O)Cc3ccc(Cl)cc3)cc2S(N)(=O)=O)c1 [Example 181, 2-(4-Chlorophenyl)-N-[4-(4-cyano-1H-pyrazol-1-yl)-3-sulfamoylphenyl]acetamide]
14 | 89 | 6.79 | COc1ccccc1CC(=O)Nc1ccc(-n2cc(C#N)cn2)c(S(N)(=O)=O)c1 [Example 182, N-[4-(4-Cyano-1H-pyrazol-1-yl)-3-sulfamoylphenyl]-2-(2-methoxyphenyl)acetamide]
15 | 96 | 7.41 | N#Cc1cnn(-c2ccc(NC(=O)Cc3c(F)cccc3Cl)cc2S(N)(=O)=O)c1 [Example 183, 2-(2-Chloro-6-fluorophenyl)-N-[4-(4-cyano-1H-pyrazol-1-yl)-3-sulfamoylphenyl]-acetamide]
16 | 96 | 7.17 | N#Cc1cnn(-c2ccc(NC(=O)Cc3ccccc3C(F)(F)F)cc2S(N)(=O)=O)c1 [Example 184, N-[4-(4-Cyano-1H-pyrazol-1-yl)-3-sulfamoylphenyl]-2-[2-(trifluoromethyl)-phenyl]acetamide]
17 | 71 | 6.61 | N#Cc1cnn(-c2ccc(NC(=O)Cc3cccc(F)c3)cc2S(N)(=O)=O)c1 [Example 185, N-[4-(4-Cyano-1H-pyrazol-1-yl)-3-sulfamoylphenyl]-2-(3-fluorophenyl)acetamide]
18 | 78 | 7.40 | N#Cc1cnn(-c2ccc(NC(=O)Cc3ccc(Cl)cc3Cl)cc2S(N)(=O)=O)c1 [Example 186, N-[4-(4-Cyano-1H-pyrazol-1-yl)-3-sulfamoylphenyl]-2-(2,4-dichlorophenyl)acetamide]
19 | 84 | 7.48 | N#Cc1cnn(-c2ccc(NC(=O)Cc3c(Cl)cccc3Cl)cc2S(N)(=O)=O)c1 [Example 187, N-[4-(4-Cyano-1H-pyrazol-1-yl)-3-sulfamoylphenyl]-2-(2,6-dichlorophenyl)acetamide]
20 | 89 | 7.51 | N#Cc1cnn(-c2ccc(NC(=O)Cc3ccccc3Br)cc2S(N)(=O)=O)c1 [Example 188, 2-(2-Bromophenyl)-N-[4-(4-cyano-1H-pyrazol-1-yl)-3-sulfamoylphenyl]acetamide]
21 | 60 | 6.70 | N#Cc1cnn(-c2ccc(NC(=O)Cc3ccc(F)c(F)c3)cc2S(N)(=O)=O)c1 [Example 189, N-[4-(4-Cyano-1H-pyrazol-1-yl)-3-sulfamoylphenyl]-2-(3,4-difluorophenyl)acetamide]
22 | 58 | 6.27 | N#Cc1cnn(-c2ccc(NC(=O)Cc3cc(F)cc(F)c3)cc2S(N)(=O)=O)c1 [Example 190, N-[4-(4-Cyano-1H-pyrazol-1-yl)-3-sulfamoylphenyl]-2-(3,5-difluorophenyl)acetamide]
23 | 76 | 6.74 | N#Cc1cnn(-c2ccc(NC(=O)Cc3cccc(Cl)c3)cc2S(N)(=O)=O)c1 [Example 191, 2-(3-Chlorophenyl)-N-[4-(4-cyano-1H-pyrazol-1-yl)-3-sulfamoylphenyl]acetamide]
24 | 69 | 6.24 | N#Cc1cnn(-c2ccc(NC(=O)Cc3ccc(F)cc3)cc2S(N)(=O)=O)c1 [Example 192, N-[4-(4-Cyano-1H-pyrazol-1-yl)-3-sulfamoylphenyl]-2-(4-fluorophenyl)acetamide]
25 | 84 | 6.37 | N#Cc1cnn(-c2ccc(NC(=O)Cc3ccccc3O)cc2S(N)(=O)=O)c1 [Example 193, N-[4-(4-Cyano-1H-pyrazol-1-yl)-3-sulfamoylphenyl]-2-(2-hydroxyphenyl)acetamide]
26 | 84 | 6.49 | N#Cc1cnn(-c2ccc(NC(=O)Cc3ccc(O)cc3)cc2S(N)(=O)=O)c1 [Example 194, N-[4-(4-Cyano-1H-pyrazol-1-yl)-3-sulfamoylphenyl]-2-(4-hydroxyphenyl)acetamide]
27 | 68 | 7.07 | Cc1ccc(CC(=O)Nc2ccc(-n3cc(C#N)cn3)c(S(N)(=O)=O)c2)cc1 [Example 195, N-[4-(4-Cyano-1H-pyrazol-1-yl)-3-sulfamoylphenyl]-2-(4-methylphenyl)acetamide]
